Assay results taken from US4207326A, “Antimicrobial quaternary pyrazole derivatives” (Cilag-Chemie A.G., priority 1979, dated 1980).
Where two headings read alike, the source gives them in different places.

What was measured:
S. aureus = assay: Antibacterial activity: Minimum Inhibitory Concentration; format: cell-based, Staphylococcus aureus ATCC 6538; settings: 24 hours; for MIC: Staphylococcus aureus
Procedure: (§1) The antimicrobial activity was determined by inoculation of the test microorganism into suitable growth media containing solutions of the compounds at concentrations of 100, 50, 10, 5, 1.0, 0.5 and 0.1 μg/ml. The reference antibiotics used were Gentamicin for the antibacterial tests and Amphotericin B for the antimycotic and antifungal tests. After incubation the antimicrobial activity was recorded as the Minimal Inhibitory Concentration (M.I.C.), i.e., the lowest concentration preventing macroscopically visible growth, for each test compound against each organism.
(§2) An initial solution of each formula (I) compound to be tested in sterile distilled water was prepared at a concentration of 1000 μg/ml. With appropriate dilutions using sterile distilled water, additional solutions were prepared at concentrations of 500, 100, 50, 10, 5 and 1 μg/ml.
(§3) They were cultured and maintained on Tryptone Soy Agar (Oxoid CM 131), with the addition of 10% horse blood for the S. pyogenes.
(§4) To prepare the organisms as inocula for the test, slopes of this medium were streaked with the organisms and incubated at 37° C. for 24 hours. 4.5 Ml volumes of Brian-Heart Infusion Broth (Oxoid CM 225) were then inoculated with a platinum loop from the agar slope cultures and incubated for 24 hours at 37° C. The final inocula were then prepared by adding 0.1 ml aliquots of the Brain-Heart Infusion Broth cultures to 100 ml volumes of sterile physiological saline.
(§5) (a) For the test on each of the bacterial strains and each of the test and reference compounds, a series of 8 tubes containing 4.5 ml volumes of Brain-Heart Infusion Broth (Oxoid CM 225) were prepared. To 7 of these were added 0.5 ml volumes of the final solutions of the test compouns, giving final concentrations in the broths of 100, 50, 10, 5, 1.0, 0.5 and 0.1 μg/ml. To the eighth tube in each series was added 0.5 ml of the solvent used and diluted as for the preparation of the 1000 μg/ml solution of the compound. This tube was used as the growth control. The tubes were inoculated with 0.02 ml aliquots of the inocula prepared in accordance with "(a) Bacteria" above, and incubated at 37° C. for 24 hours. The tubes were then examined for evidence of bacterial growth as shown by turbidity of the medium and the lowest concentration of the test compound which prevented bacterial growth was recorded as the Minimal Inhibitory Concentration. This test procedure was carried out on two separate days.

M. canis = assay: Antifungal activity: Minimum Inhibitory Concentration; format: cell-based, Microsporum canis NCPF 351; settings: M. canis, 27° C., one week; for MIC: Microsporum canis, read-out: Minimum Inhibitory Concentration
Procedure: as §1, §2
(§6) The A. corymbifera, A. fumigatus, S. schenkii, T. rubrum, T. mentagrophytes, M. canis and P. verrucosa strains were all maintained on Sabouraud-Dextrose Agar (Oxoid CM 41) by incubating for 14 days at 27° C. To prepare the inocula 30 ml volumes of Sabouraud-Liquid medium (Oxoid CM 147) were inoculated from the agar cultures and incubated at 27° C. until heavy uniform growth resulted. The mycelial growth was then broken up by shaking with glass beads.
(§7) 1 Ml aliquots were removed from each of the cultures for the purpose of making viable counts and the cultures were then held at 4° C. The viable counts were made by preparing serial ten-fold dilutions of the cultures in sterile physiological saline and spreading on plates of Sabouraud-Dextrose Agar (Oxoid CM 41) which were then incubated at 27° C. for 14 days. When the viable counts had confirmed that each of the inocula contained approximately 10^6 colony forming units (C.F.U.) per ml the cultures were withdrawn from the refrigerator and used as the inocula for the tests.
(§8) (c) For the tests on each of the remaining seven strains and each of the test and reference compounds, a series of 8 tubes containing 4.5 ml volumes of Sabouraud-Liquid Medium (Oxoid CM 147) were prepared. To 7 of these were added 0.5 ml volumes of the final solutions of the test compounds, giving final concentrations in the broths of 100, 50, 10, 5, 1.0, 0.5 and 0.1 μg/ml. To the eighth tube in each series was added 0.5 ml of the solvent used and diluted as for the preparation of the 500 μg/ml solution of the compound. This tube was used as a growth control. The tubes were then inoculated with 0.1 ml aliquots of the inocula prepared as in "(b) Fungi" above. The tubes were then incubated at 27° C. with continuous shaking for a period of one week. The tubes were then examined for evidence of growth as shown by the presence of mycelial growth in the medium and the lowest concentration of the test compound which prevented fungal growth was recorded as the Minimal Inhibitory Concentration. This test procedure was carried out on two separate days.

P. verrucosa = assay: as above; format: cell-based, Phialophore verrucosa NCPF 1119; settings: P. verrucosa, 27° C., one week; for MIC: Phialophora verrucosa, read-out: Minimum Inhibitory Concentration
Procedure: as §1, §2, §6, §7, §8

E. coli = assay: Antibacterial activity: Minimum Inhibitory Concentration; format: cell-based, Escherichia coli ATCC 8739; settings: 24 hours; for MIC: Escherichia coli
Procedure: as §1, §2, §3, §4, §5

C. albicans = assay: Antimycotic activity: Minimum Inhibitory Concentration; format: cell-based, Candida albicans ATCC 10231; settings: pH 5.5, 37° C., 72 hours; for MIC: Candida albicans, pH 5.5, C. albicans, read-out: Minimum Inhibitory Concentrations; for Minimum Inhibitory Concentrations: C. albicans
Procedure: as §1, §2
(§9) The two species, C. albicans and C. tropicalis, were maintained on Sabouraud-Dextrose Agar (Oxoid CM41) and cultures for the preparation of the inoculum were incubated on this agar at 37° C. for 48 hours. 4.5 Ml volumes of citric acid-phosphate buffer pH 5.5 plus Yeast-Nitrogen Base (Difco 0392-15) were then inoculated from the agar cultures and incubated at 37° C. for 48 hours. 0.1 Ml aliquots of these cultures were then added to 100 ml volumes of sterile physiological saline to give the final inocula.
(§10) (b) For the tests on each of the C. albicans, C. tropicalis and C. neoformans strains and each of the test and reference compounds, a series of 8 tubes containing 4.5 ml volumes of citric acid-phosphate buffer pH 5.5 plus Yeast-Nitrogen Base (Difco 0392-15) were prepared. To 7 of these were added 0.5 ml volumes of the final solutions of the test compounds, giving final concentrations in the broths of 100, 50, 10, 5, 1.0, 0.5 and 0.1 μg/ml. To the eighth tube in each series was added 0.5 ml of the solvent used and diluted as for the preparation of the 1000 μg/ml solution of the compound. This tube was used as the growth control. The tubes were then inoculated with 0.1 ml aliquots of the inocula prepared as in "(b) Fungi" above. The tubes inoculated with the C. albicans and C. tropicalis were inoculated at 37° C. for 72 hours and the tubes inoculated with the C. neoformans straim were incubated at 30° C. for 72 hours. […] The tubes were then examined for evidence of growth as shown by turbidity of the medium and the lowest concentration of the test compound which prevented fungal growth was recorded as the Minimal Inhibitory Concentration. This test procedure was carried out on two separate days.

P. aeruginosa = assay: Antibacterial activity: Minimum Inhibitory Concentration; format: cell-based, Pseudomonas aeruginosa ATCC 9027; settings: P. aeruginosa, 37° C., 24 hours; for MIC: Pseudomonas aeruginosa, read-out: Minimum Inhibitory Concentration
Procedure: as §1, §2, §3, §4, §5

C. tropicalis = assay: Antimycotic activity: Minimum Inhibitory Concentration; format: cell-based, Candida tropicalis NCPF 3111; settings: pH 5.5, 37° C., 72 hours; for MIC: Candida tropicalis, pH 5.5, C. tropicalis, read-out: Minimum Inhibitory Concentrations; for Minimum Inhibitory Concentrations: C. tropicalis
Procedure: as §1, §2, §9, §10

Molecule	MIC (S. aureus; Day 1, 37° C.) [µg/mL]	MIC (S. aureus; Day 2, 37° C.) [µg/mL]	MIC (M. canis; Day 1) [µg/mL]	MIC (M. canis; Day 2) [µg/mL]	MIC (P. verrucosa; Day 1) [µg/mL]	MIC (P. verrucosa; Day 2) [µg/mL]	MIC (E. coli; Day 1, 37° C.) [µg/mL]	MIC (E. coli; Day 2, 37° C.) [µg/mL]	MIC (C. albicans; Day 1) [µg/mL]	MIC (C. albicans; Day 2) [µg/mL]	MIC (P. aeruginosa; Day 1) [µg/mL]	MIC (P. aeruginosa; Day 2) [µg/mL]	MIC (C. tropicalis; Day 1) [µg/mL]	MIC (C. tropicalis; Day 2) [µg/mL]	also measured
CCCCCCCCCCCCn1c(C)cc(C)[n+]1C [Example 1, 1-dodecyl-2,3,5-trimethyl-pyrazolium methosulfate]	5	5	5	10	5	5	50	100	10	50	50	10	5	5	
2,3(5)-dimethyl-1-dodecyl-pyrazolium methosulfate [Example 8-A]															Minimum Inhibitory Concentration (S. aureus; Day 1, 37° C.): 1 µg/mL; Minimum Inhibitory Concentration (S. aureus; Day 2, 37° C.): 0.5 µg/mL; Minimum Inhibitory Concentration (M. canis; Day 1): 5 µg/mL; Minimum Inhibitory Concentration (M. canis; Day 2): 1 µg/mL; Minimum Inhibitory Concentration (P. verrucosa; Day 1): 10 µg/mL; Minimum Inhibitory Concentration (P. verrucosa; Day 2): 10 µg/mL; Minimum Inhibitory Concentration (E. coli; Day 1, 37° C.): 50 µg/mL; Minimum Inhibitory Concentration (E. coli; Day 2, 37° C.): 50 µg/mL; Minimum Inhibitory Concentrations (C. albicans; Day 1): 10 µg/mL; Minimum Inhibitory Concentrations (C. albicans; Day 2): 50 µg/mL; Minimum Inhibitory Concentration (P. aeruginosa; Day 1): 50 µg/mL; Minimum Inhibitory Concentration (P. aeruginosa; Day 2): 50 µg/mL; Minimum Inhibitory Concentrations (C. tropicalis; Day 1): 5 µg/mL; Minimum Inhibitory Concentrations (C. tropicalis; Day 2): 5 µg/mL
CCCCCCCCCCCC[n+]1c(C)cc(C)n1Cc1ccc(Cl)cc1.[Br-] [Example 6-E, 2-(p-chlorobenzyl)-3,5-dimethyl-1-dodecyl-pyrazolium bromide]	0.5	0.5	1	5	5	5	10	10	1	5	5	5	5	1	
2,3(5)-dimethyl-1-hexadecyl-pyrazolium methosulfate [Example 9]															Minimum Inhibitory Concentration (S. aureus; Day 1, 37° C.): 0.5 µg/mL; Minimum Inhibitory Concentration (S. aureus; Day 2, 37° C.): 0.5 µg/mL; Minimum Inhibitory Concentration (M. canis; Day 1): 5 µg/mL; Minimum Inhibitory Concentration (M. canis; Day 2): 5 µg/mL; Minimum Inhibitory Concentration (P. verrucosa; Day 1): 5 µg/mL; Minimum Inhibitory Concentration (P. verrucosa; Day 2): 10 µg/mL; Minimum Inhibitory Concentration (E. coli; Day 1, 37° C.): 50 µg/mL; Minimum Inhibitory Concentration (E. coli; Day 2, 37° C.): 10 µg/mL; Minimum Inhibitory Concentrations (C. albicans; Day 1): 5 µg/mL; Minimum Inhibitory Concentrations (C. albicans; Day 2): 10 µg/mL; Minimum Inhibitory Concentration (P. aeruginosa; Day 1): 10 µg/mL; Minimum Inhibitory Concentration (P. aeruginosa; Day 2): 10 µg/mL; Minimum Inhibitory Concentrations (C. tropicalis; Day 1): 5 µg/mL; Minimum Inhibitory Concentrations (C. tropicalis; Day 2): 1 µg/mL
CCCCCCCCCCCCCCn1ccc[n+]1C [Example 3-G, 2-methyl-1-tetradecyl-pyrazolium methosulfate]	0.5	0.5	10	5	5	5	10	10	5	5	10	10	0.5	0.5	
CCCCCCCCCCCC[n+]1c(C)cc(C)n1Cc1ccc(Cl)cc1Cl.[Br-] [Example 6-B, 2-(2,4-dichlorobenzyl)-3,5-dimethyl-1-dodecyl-pyrazolium bromide]	0.5	0.5	5	5	5	5	10	5	5	5	10	10	1	1	
C=CCn1c(C)cc(C)[n+]1CCCCCCCCCCCCCCCC.[Br-] [Example 7, 2-allyl-3,5-dimethyl-1-hexadecyl-pyrazoliumbromide]	0.5	0.5	5	10	5	5	10	5	5	1	50	10	0.5	0.5	
CCCCCCCCCCCCn1ccc[n+]1C [Example 3-E, 1-dodecyl-2-methy-pyrazolium methosulfate]	1	1	10	10	5	10	50	50	50	50	50	50	5	1	
